Measured values from EPA's CvTdb concentration-time database.
Values joined by “and” are separate entries in the source; they are usually repeats but may differ in a detail not shown here. Equal entries are not always repeated.

Assays:
rat [1] = assay: concentration in expired air after dosing; conditions: dosed: 1,1,1,2-tetrachloroethane, 352 ppm, inhalation, duration: 6 hr
rat [2] = assay: concentration in blood after dosing; conditions: dosed: 1,2-Dichloroethane, 100 mg/kg, oral, male, Wistar
Rat [3] = assay: concentration in blood after dosing; negative times count back from the end of exposure; conditions: dosed: 1,2-dichloroethane, inhalation, duration: 6 hr, Male, F344
rat [4] = assay: as above; conditions: dosed: 1,2-dichloroethane, inhalation, duration: 6 hr, male
rat [5] = assay: concentration in urine after dosing; conditions: dosed: benzo[a]pyrene, 200 mg/kg, iv, male, LIO
rat [6] = assay: concentration in feces after dosing; conditions: dosed: benzo[a]pyrene, 200 mg/kg, iv, male, LIO
rat [7] = assay: concentration in lung after dosing; conditions: dosed: benzo[a]pyrene, inhalation, duration: 4 hr, F344
rat [8] = assay: concentration in plasma after dosing; conditions: dosed: benzo[a]pyrene, inhalation, duration: 4 hr, F344

ClCC(Cl)(Cl)Cl [1,1,1,2-tetrachloroethane]
rat [1]
Conditions	concentration in expired air [ng/mL]
0.2586 h	89.8
0.5066 h	97.9
0.7323 h	90.1
0.7758 h	98.6
1.001 h	79.1
1.012 h	83.8
1.506 h	67.5
1.507 h	72.8
2.766 h	65.7
3.982 h	62.9
4.003 h	52
4.477 h	59.7
5.5 h	58.8
6.5 h	46.7
6.511 h	41.4
6.995 h	40.1
7.007 h	49.3
7.986 h	39.2
7.995 h	32.7
8.987 h	36.6
8.997 h	31
9.986 h	27
9.987 h	29.5

ClCCCl [1,2-Dichloroethane]
rat [2]
Conditions	concentration in blood [ng/mL]
0.1036 h	52400
0.1179 h	13300
0.132 h	43800
0.1651 h	12600
0.1867 h	44200
0.1921 h	12300
0.2321 h	11400
0.2347 h	43700
0.2763 h	39500
0.2876 h	11900
0.3244 h	38100
0.3422 h	11800
0.3792 h	37800
0.3969 h	11700
0.4271 h	38800
0.4374 h	11200
0.5094 h	37200
0.5261 h	10800
0.7703 h	31800
0.7778 h	9360
1.018 h	25700
1.028 h	6280
1.518 h	20100
1.525 h	4200
2.019 h	14600
2.026 h	4360
2.519 h	10500
2.525 h	3610
3.016 h	1910
3.027 h	7170
3.517 h	2720
3.527 h	4850
4.013 h	3030
4.015 h	1450
4.508 h	862
4.52 h	1720
5.001 h	703
5.014 h	1210
145 s	5240
247 s	58200
291 s	10900

ClCCCl [1,2-dichloroethane]
concentration in blood [ng/mL], Rat [3]
Conditions	50 ppm	250 ppm
0.1443 h	815	24500
0.2313 h	664	–
0.2438 h	–	19700
0.3184 h	495	–
0.3308 h	–	15800
0.4925 h	239	12300
0.7413 h	131	8050
0.99 h	–	5340
1.488 h	–	1940
1.973 h	–	664
2.993 h	–	124
295 s	962	26800

Conditions	concentration in blood
Rat [3], -3.002 h, 50 ppm, during exposure	1340 ng/mL
Rat [3], -3.015 h, 250 ppm, during exposure	29300 ng/mL
Rat [3], -4.01 h, 50 ppm, during exposure	1340 ng/mL
Rat [3], -4.01 h, 250 ppm, during exposure	23600 ng/mL
Rat [3], -5.005 h, 50 ppm, during exposure	926 ng/mL
Rat [3], -5.005 h, 250 ppm, during exposure	11700 ng/mL
Rat [3], -5.515 h, 50 ppm, during exposure	476 ng/mL
Rat [3], -5.515 h, 250 ppm, during exposure	5840 ng/mL and 6640 ng/mL
Rat [3], -18 s, 50 ppm, during exposure	1360 ng/mL
Rat [3], -18 s, 250 ppm, during exposure	30800 ng/mL
rat [4], 0 h, 200 ppm, Fischer-344	2940 ng/mL
rat [4], 0.1607 h, 150 ppm, Osborne-Mendel	3870 ng/mL
rat [4], 0.2398 h, 150 ppm, Osborne-Mendel	2830 ng/mL
rat [4], 0.25 h, 200 ppm, Fischer-344	851 ng/mL
rat [4], 0.3387 h, 150 ppm, Osborne-Mendel	2010 ng/mL
rat [4], 0.4969 h, 150 ppm, Osborne-Mendel	1320 ng/mL
rat [4], 0.665 h, 150 ppm, Osborne-Mendel	670 ng/mL
rat [4], 0.9913 h, 150 ppm, Osborne-Mendel	708 ng/mL
rat [4], 1.328 h, 150 ppm, Osborne-Mendel	279 ng/mL
rat [4], 258 s, 150 ppm, Osborne-Mendel	5010 ng/mL
rat [4], -3 h, 200 ppm, Fischer-344, during exposure	3170 ng/mL
rat [4], -5 h, 200 ppm, Fischer-344, during exposure	1920 ng/mL
rat [4], -5.5 h, 200 ppm, Fischer-344, during exposure	1320 ng/mL
rat [4], -5.75 h, 200 ppm, Fischer-344, during exposure	768 ng/mL

rat [4], 150 ppm, Osborne-Mendel, during exposure
Conditions	concentration in blood [ng/mL]
-27 s	9390
-5.001 h	5160
-3.34 h	8640
-2.005 h	8290

Oc1ccc2ccc3c4ccccc4cc4ccc1c2c43 [3-OH-BP]
Conditions	concentration in feces, rat [6] [µg/kg]	concentration in urine, rat [5] [µg/kg]
24 h	6.9	3.9
48 h	9.9	5.4
72 h	8.9	6.2
96 h	9.6	5
120 h	7.7	4.2
144 h	9.1	2.6
168 h	8.4	2.6
192 h	4	2.5
216 h	3.3	2.8
240 h	3.2	2.7
264 h	3.1	2.5
288 h	2.5	2.6
312 h	2.5	2.5
336 h	2.3	2.2
360 h	2.3	2.5

Oc1ccc2ccc3c4ccccc4cc4ccc1c2c43 [3-hydroxy benzo[a]pyrene]
Conditions	concentration in lung, 0.05 h [ng/mL]	concentration in lung, 1 h [ng/mL]	concentration in lung, 2 h [ng/mL]	concentration in lung, 4 h [ng/mL]	concentration in plasma, 0.5 h [ng/mL]	concentration in plasma, 1 h [ng/mL]	concentration in plasma, 2 h [ng/mL]	concentration in plasma, 4 h [ng/mL]
rat [7], 0.1 mg/m^3, female	0.389	3.61	0.814	0.209	–	–	–	–
rat [7], 0.1 mg/m^3, male	0.29	2.87	1.21	0.154	–	–	–	–
rat [7], 1 mg/m^3, female	11.8	15.5	14.6	1.6	–	–	–	–
rat [7], 1 mg/m^3, male	5.1	16.6	5.12	3	–	–	–	–
rat [7], 2.5 mg/m^3, female	23.9	52.2	12.3	1.49	–	–	–	–
rat [7], 2.5 mg/m^3, male	21.7	48.1	8.15	3.18	–	–	–	–
rat [8], 0.1 mg/m^3, female	–	–	–	–	0.174	0.689	0.344	0.0192
rat [8], 0.1 mg/m^3, male	–	–	–	–	0.301	0.905	0.305	0.0316
rat [8], 1 mg/m^3, female	–	–	–	–	0.399	7	0.356	0.00793
rat [8], 1 mg/m^3, male	–	–	–	–	0.606	8.58	0.97	0.00272
rat [8], 2.5 mg/m^3, female	–	–	–	–	5.8	34.5	6.62	0.324
rat [8], 2.5 mg/m^3, male	–	–	–	–	5.6	33.1	7.14	0.363
